# Several values for one entry are separate records, joined by “and”; a condition that tells them apart may be missing. Equal entries are not always repeated. Where a SMILES comes first, the peptide text is derived from it. [ ]: non-standard residue; d: D form. Hyp = O=C(O)[C@@H]1C[C@@H](O)CN1
# System: CCL4/MIP-1 beta
# Experiment: Example 9 Luminex, LPS hPBMCs: CCL4/MIP-1 beta
# Assay type: cell-based, human
# Settings: PBMC + LPS(5 ug/ml); for MFI (Bead name: CCL4/MIP-1 beta): dilution 10
# Procedure: Treatment Human PBMCs were pretreated with YY-101, YDE-011 and YDE-043 or reference compound; Xiidra® at various concentration (ranging from 1 nM to 100 uM) for 2 h before stimulation. An equal volume of 0.5% DMSO was used as a vehicle control. Then, the cells were treated with LPS at 5 ug/ml. The supernatants from treated cells were harvested at 24 h and placed in a 96 well for Luminex cytokine & chemokine profiling using a Luminex 200 multiplex assay (Luminex; R&D system, USA).
# The main study arm with triplicate wells per group in a 24-well plate: • 1. Blank • 2. PBMC: 0.5% DMSO • 3. PBMC+LPS (5 ug/ml) • 4. PBMC+YY-101 100 uM • 5. PBMC+YY-101 10 uM • 6. PBMC+YY-101 1 uM • 7. PBMC+YY-101 0.1 uM • 8. PBMC+YY-101 0.01 uM • 9. PBMC+LPS (5 ug/ml)+Xiidra®100 uM • 10. PBMC+LPS (5 ug/ml)+Xiidra® 10 uM • 11. PBMC+LPS (5 ug/ml)+Xiidra® 1 uM • 12. PBMC+LPS (5 ug/ml)+Xiidra®0.1 uM • 13. PBMC+LPS (5 ug/ml)+Xiidra®0.01 uM • 14. PBMC+LPS (5 ug/ml)+Xiidra®0.001 uM • 15. PBMC+LPS (5 ug/ml)+YY-101 100 uM • 16. PBMC+LPS (5 ug/ml)+YY-101 10 uM • 17. PBMC+LPS (5 ug/ml)+YY-101 1 uM • 18. PBMC+LPS (5 ug/ml)+YY-101 0.1 uM • 19. PBMC+LPS (5 ug/ml)+YY-101 0.01 uM • 20. PBMC+LPS (5 ug/ml)+YY-101 0.001 uM • 21. PBMC+LPS (5 ug/ml)+YDE-011 100 uM • 22. PBMC+LPS (5 ug/ml)+YDE-011 10 uM • 23. PBMC+LPS (5 ug/ml)+YDE-011 1 uM • 24. PBMC+LPS (5 ug/ml)+YDE-011 0.1 uM • 25. PBMC+LPS (5 ug/ml)+YDE-011 0.01 uM • 26. PBMC+LPS (5 ug/ml)+YDE-011 0.001 uM • 27. PBMC+LPS (5 ug/ml)+YDE-043 100 uM • 28. PBMC+LPS (5 ug/ml)+YDE-043 10 uM • 29. PBMC+LPS (5 ug/ml)+YDE-043 1 uM • 30. PBMC+LPS (5 ug/ml)+YDE-043 0.1 uM • 31. PBMC+LPS (5 ug/ml)+YDE-043 0.01 uM • 32. PBMC+LPS (5 ug/ml)+YDE-043 0.001 uM
# Multiplex assay was used to measure 30 cytokines and chemokines. The 1:2, 1:10 and 1:200 diluted cell supernatant and serial dilution of the standard were dispensed into a 96 well plate at 50 ul/well. Then, the pre-mixed cocktail of antibody-coated magnetic beads was dispensed at 50 ul/well and incubated at room temperature for 2 h in a horizontal orbital microplate shaker at 800±500 rpm. The beads were washed using a magnetic device to prevent loss. The biotin-antibody was dispensed in 50 ul of each well and incubated at room temperature for 1 h in a shaker at 800±500 rpm. After washing, streptavidin-PE was added at 50 ul/well and incubated at room temperature for 30 min in a shaker under the same conditions. Finally, after washing, wash buffer (100 ul/well) was added to the plate and incubated in a shaker for 2 min. The Luminex™ 200 setting were set according to the manufacturer's protocol. The data was calculated with a standard five-parameter logistic nonlinear regression analysis of the data (xPonent software 4.2, USA). The levels of cytokine/chemokine are normalized to the live cell counts (1×10^5 cells/mL) and presented as concentrations per mL (pg/mL or ng/mL).
# [1] = test article 0.001 uM, single replicates
# [2] = test article 0.01 uM, single replicates
# [3] = test article 0.1 uM, single replicates
# [4] = test article 1 uM, single replicates
# [5] = test article 10 uM, single replicates
# [6] = test article 100 uM, single replicates
Structure (SMILES),"Concentration (CCL4/MIP-1 beta) (test article 0.001 uM, Mean)","conc/live cell (CCL4/MIP-1 beta) (test article 0.001 uM, Mean)","MFI (Bead name: CCL4/MIP-1 beta) (test article 0.001 uM, Mean)",MFI (Bead name: CCL4/MIP-1 beta) [1],Concentration (CCL4/MIP-1 beta) [1],conc/live cell (CCL4/MIP-1 beta) [1],"Concentration (CCL4/MIP-1 beta) (test article 0.01 uM, Mean)","conc/live cell (CCL4/MIP-1 beta) (test article 0.01 uM, Mean)","MFI (Bead name: CCL4/MIP-1 beta) (test article 0.01 uM, Mean)",MFI (Bead name: CCL4/MIP-1 beta) [2],Concentration (CCL4/MIP-1 beta) [2],conc/live cell (CCL4/MIP-1 beta) [2],"Concentration (CCL4/MIP-1 beta) (test article 0.1 uM, Mean)","conc/live cell (CCL4/MIP-1 beta) (test article 0.1 uM, Mean)","MFI (Bead name: CCL4/MIP-1 beta) (test article 0.1 uM, Mean)",MFI (Bead name: CCL4/MIP-1 beta) [3],Concentration (CCL4/MIP-1 beta) [3],conc/live cell (CCL4/MIP-1 beta) [3],"Concentration (CCL4/MIP-1 beta) (test article 1 uM, Mean)","conc/live cell (CCL4/MIP-1 beta) (test article 1 uM, Mean)",further results
CC(C)C[C@H](NC(=O)CNC(=O)[C@H](CC(C)C)NC(=O)[C@H](CCC(N)=O)NC(=O)CNC(=O)[C@@H]1C[C@@H](O)CN1)C(=O)N[C@@H](C)C(=O)NCC(=O)N1CCC[C@H]1C(=O)N[C@@H](CCCCN)C(=O)O [YDE-011] (H-[Hyp]GQLGLAGPK-OH),7251.7 pg/mL,1370.9 pg/10^5,157.3,158.0 (2×) and 156.0,7267.3 pg/ml (2×) and 7220.3 pg/ml,1615.0 pg/10^5 and 1244.9 pg/10^5 and 1253.0 pg/10^5,7395.1 pg/mL,1270.9 pg/10^5,163.5,164.0 and 159.0 and 167.5,7407.0 pg/mL and 7290.8 pg/mL and 7487.6 pg/mL,1194.7 pg/10^5 and 1429.6 pg/10^5 and 1188.5 pg/10^5,7029.3 pg/mL,1234.5 pg/10^5,148.0,152.0 and 151.0 and 141.0,7125.7 pg/mL and 7101.9 pg/mL and 6860.2 pg/mL,1079.6 pg/10^5 and 1420.4 pg/10^5 and 1203.6 pg/10^5,7165.0 pg/mL,1429.9 pg/10^5,"MFI (Bead name: CCL4/MIP-1 beta) (test article 1 uM, Mean): 153.7; MFI (Bead name: CCL4/MIP-1 beta) [4]: 151.0 and 152.0 and 158.0; Concentration (CCL4/MIP-1 beta) [4]: 7101.9 pg/mL and 7125.7 pg/mL and 7267.3 pg/mL; conc/live cell (CCL4/MIP-1 beta) [4]: 1291.2 pg/10^5 and 1484.5 pg/10^5 and 1514.0 pg/10^5; Concentration (CCL4/MIP-1 beta) (test article 10 uM, Mean): 7321.1 pg/mL; conc/live cell (CCL4/MIP-1 beta) (test article 10 uM, Mean): 1392.8 pg/10^5; MFI (Bead name: CCL4/MIP-1 beta) (test article 10 uM, Mean): 160.3; MFI (Bead name: CCL4/MIP-1 beta) [5]: 166.0 and 153.5 and 161.5; Concentration (CCL4/MIP-1 beta) [5]: 7453.1 pg/mL and 7161.3 pg/mL and 7349.0 pg/mL; conc/live cell (CCL4/MIP-1 beta) [5]: 1380.2 pg/10^5 and 1234.7 pg/10^5 and 1563.6 pg/10^5; Concentration (CCL4/MIP-1 beta) (test article 100 uM, Mean): 6290.1 pg/mL; conc/live cell (CCL4/MIP-1 beta) (test article 100 uM, Mean): 1036.8 pg/10^5; MFI (Bead name: CCL4/MIP-1 beta) (test article 100 uM, Mean): 118.5; MFI (Bead name: CCL4/MIP-1 beta) [6]: 119.0 and 121.5 and 115.0; Concentration (CCL4/MIP-1 beta) [6]: 6303.5 pg/mL and 6368.7 pg/mL and 6197.9 pg/mL; conc/live cell (CCL4/MIP-1 beta) [6]: 1033.4 pg/10^5 and 1044.1 pg/10^5 and 1033.0 pg/10^5"
CC(C)C[C@H](NC(=O)[C@H](CCC(N)=O)NC(=O)CNC(=O)[C@@H]1C[C@@H](O)CN1)C(=O)NCC(=O)O [YDE-043] (H-[Hyp]GQLG-OH; N-terminus and C-terminus assumed),7716.4 pg/mL,1568.7 pg/10^5,177.7,165.5 and 185.0 and 182.5,7441.6 pg/mL and 7881.5 pg/mL and 7826.1 pg/mL,1691.3 pg/10^5 and 1313.6 pg/10^5 and 1701.3 pg/10^5,7755.3 pg/mL,1483.8 pg/10^5,179.3,178.0 and 177.0 and 183.0,7725.6 pg/mL and 7703.2 pg/mL and 7837.2 pg/mL,1716.8 pg/10^5 and 1167.1 pg/10^5 and 1567.4 pg/10^5,7358.9 pg/mL,1365.2 pg/10^5,162.0,153.5 and 159.5 and 173.0,7161.3 pg/mL and 7302.4 pg/mL and 7612.9 pg/mL,1432.3 pg/10^5 and 1304.0 pg/10^5 and 1359.5 pg/10^5,7359.3 pg/mL,1391.3 pg/10^5,"MFI (Bead name: CCL4/MIP-1 beta) (test article 1 uM, Mean): 162.3; MFI (Bead name: CCL4/MIP-1 beta) [4]: 175.0 (2×) and 137.0; Concentration (CCL4/MIP-1 beta) [4]: 7658.2 pg/ml (2×) and 6761.7 pg/ml; conc/live cell (CCL4/MIP-1 beta) [4]: 1320.4 pg/10^5 and 1408.7 pg/10^5 and 1444.9 pg/10^5; Concentration (CCL4/MIP-1 beta) (test article 10 uM, Mean): 7298.5 pg/mL; conc/live cell (CCL4/MIP-1 beta) (test article 10 uM, Mean): 1352.7 pg/10^5; MFI (Bead name: CCL4/MIP-1 beta) (test article 10 uM, Mean): 159.3; MFI (Bead name: CCL4/MIP-1 beta) [5]: 159.0 and 158.0 and 161.0; Concentration (CCL4/MIP-1 beta) [5]: 7290.8 pg/mL and 7267.3 pg/mL and 7337.4 pg/mL; conc/live cell (CCL4/MIP-1 beta) [5]: 1402.1 pg/10^5 and 1345.8 pg/10^5 and 1310.3 pg/10^5; Concentration (CCL4/MIP-1 beta) (test article 100 uM, Mean): 6094.9 pg/mL; conc/live cell (CCL4/MIP-1 beta) (test article 100 uM, Mean): 968.2 pg/10^5; MFI (Bead name: CCL4/MIP-1 beta) (test article 100 uM, Mean): 111.3; MFI (Bead name: CCL4/MIP-1 beta) [6]: 118.5 and 104.0; Concentration (CCL4/MIP-1 beta) [6]: 6290.4 pg/mL and 5899.5 pg/mL; conc/live cell (CCL4/MIP-1 beta) [6]: 1014.6 pg/10^5 and 921.8 pg/10^5"
